Assay results taken from ChEMBL document CHEMBL1148777, “Toward the development of prophylactic and therapeutic human papillomavirus type-16 lipopeptide vaccines” (J Med Chem, 2007).
Activity calls are given as the source filed them. No cut-off for these calls is given here. *1 amine or outer side, *2 acyl side, *3 side chain or, on linkers, in order; H or OH if unused. Where a SMILES comes first, the peptide text is derived from it. [ ]: non-standard residue; d: D form. The star is where a group is joined. ξ: configuration not given here. X3 = CC(=O)OC[C@@H]1O[C@H](N*)[C@H](OC(C)=O)[C@H](OC(C)=O)[C@H]1OC(C)=O; X2 = OC[C@@H]1O[C@H](N*)[C@@H](O)[C@H](O)[C@H]1O; X1 = OC[C@@H]1O[C@H](N*)[C@H](O)[C@H](O)[C@H]1O; Ile(3ξ) = CCC(C)[C@H](N)C(=O)O; Thr(3ξ) = CC(O)[C@H](N)C(=O)O; Suc = O=C(CCC(=O)[*:2])[*:1]

What was measured:
TC1 [1] = experiment: Antitumor activity against HPV16 associated TC1 cells xenografted C57BL/6(H2b) mouse at 40 ug; type: functional
TC1 [2] = experiment: Antitumor activity against HPV16 associated TC1 cells xenografted C57BL/6(H2b) mouse

Compound | Activity (TC1 [1]) | Activity (TC1 [2])
CCC(C)[C@H](NC(=O)[C@H](CC(N)=O)NC(=O)[C@H](Cc1ccc(O)cc1)NC(=O)[C@H](Cc1cnc[nH]1)NC(=O)[C@H](C)NC(=O)[C@H](CCCNC(=N)N)NC(=O)[C@H](CC(=O)O)NC(=O)[C@@H]1CCCN1C(=O)[C@H](CCC(=O)O)NC(=O)[C@H](C)NC(=O)[C@H](CCC(N)=O)NC(=O)CCC(=O)N[C@H]1O[C@@H](COC(C)=O)[C@H](OC(C)=O)[C@@H](OC(C)=O)[C@H]1OC(C)=O)C(=O)N[C@H](C(=O)N[C@H](C(=O)N[C@@H](Cc1ccccc1)C(=O)N[C@@H](CS)C(=O)N[C@@H](CS)C(=O)N[C@@H](CCCCN)C(=O)N[C@@H](CS)C(=O)N[C@@H](CC(=O)O)C(N)=O)C(C)O)C(C)C (some centres undefined) ({X3-Suc}-QAEPDRAHYN[Ile(3ξ)]V[Thr(3ξ)]FCCKCD-NH2) | inactive | –
CCC(C)[C@H](NC(=O)[C@H](CC(N)=O)NC(=O)[C@H](Cc1ccc(O)cc1)NC(=O)[C@H](Cc1cnc[nH]1)NC(=O)[C@H](C)NC(=O)[C@H](CCCNC(=N)N)NC(=O)[C@H](CC(=O)O)NC(=O)[C@@H]1CCCN1C(=O)[C@H](CCC(=O)O)NC(=O)[C@H](C)NC(=O)[C@H](CCC(N)=O)NC(=O)CCC(=O)N[C@H]1O[C@@H](CO)[C@H](O)[C@@H](O)[C@@H]1O)C(=O)N[C@H](C(=O)N[C@H](C(=O)N[C@@H](Cc1ccccc1)C(=O)N[C@@H](CS)C(=O)N[C@@H](CS)C(=O)N[C@@H](CCCCN)C(=O)N[C@@H](CS)C(=O)N[C@@H](CC(=O)O)C(N)=O)C(C)O)C(C)C (some centres undefined) ({X2-Suc}-QAEPDRAHYN[Ile(3ξ)]V[Thr(3ξ)]FCCKCD-NH2) | inactive | –
CC[C@H](C)[C@H](NC(=O)[C@@H](NC(=O)[C@@H](N)CO)[C@@H](C)CC)C(=O)N[C@@H](CC(N)=O)C(=O)N[C@@H](Cc1ccccc1)C(=O)N[C@@H](CCC(=O)O)C(=O)N[C@@H](CCCCN)C(=O)N[C@@H](CC(C)C)C(=O)O | – | inactive
CCC(C)[C@H](NC(=O)[C@H](CC(N)=O)NC(=O)[C@H](Cc1ccc(O)cc1)NC(=O)[C@H](Cc1cnc[nH]1)NC(=O)[C@H](C)NC(=O)[C@H](CCCNC(=N)N)NC(=O)[C@H](CC(=O)O)NC(=O)[C@@H]1CCCN1C(=O)[C@H](CCC(=O)O)NC(=O)[C@H](C)NC(=O)[C@H](CCC(N)=O)NC(=O)CCC(=O)N[C@H]1O[C@@H](CO)[C@H](O)[C@@H](O)[C@H]1O)C(=O)N[C@H](C(=O)N[C@H](C(=O)N[C@@H](Cc1ccccc1)C(=O)N[C@@H](CS)C(=O)N[C@@H](CS)C(=O)N[C@@H](CCCCN)C(=O)N[C@@H](CS)C(=O)N[C@@H](CC(=O)O)C(N)=O)C(C)O)C(C)C (some centres undefined) ({X1-Suc}-QAEPDRAHYN[Ile(3ξ)]V[Thr(3ξ)]FCCKCD-NH2) | inactive | –
